# Source: article PMC3912631, “Bench to Bed Evidences for Pharmacokinetic and Pharmacodynamic Interactions Involving Oseltamivir and Chinese Medicine” (Evidence-based Complementary and Alternative Medicine : eCAM, 2014)
# Like-named read-outs stand apart in the source and are kept apart here.
# Experiments:
# [1] = Human crossover pharmacokinetic interaction study of WM (Tamiflu) alone or with CMF1; type: in vivo, human (Chinese male healthy volunteers); conditions: human; for half-life: read-out: T 1/2 (terminal half-life) (converted); for Tmax: read-out: T max
# Procedure: Normal healthy Chinese male subjects aged 20–45 years were recruited in this study. […] The study was conducted using a single-center, randomized, open-labeled, multiple dose (5 days), two-treatment, two-period, two-sequence crossover design. […] Each subject underwent two treatment sessions (periods I and II), and each session consists of 5-day treatment (twice daily for day 1 to day 4, morning dose for day 5). The two treatment sessions were separated by a washout period of 2 weeks. 250 mL water was used for WM (Tamiflu capsule, 75 mg per dose) administration. […] Drinking water was not allowed from 1 h predose to 1 h postdose except that needed for drug dosing. […] All blood and urine collection was taken on day 5 of each treatment session. […] Blood samples were collected from a catheter, which was placed in the forearm vein before dosing. At the specified time, 5 mL of blood was drawn (except for 0 time and at 2 h which was 10 mL each for additional antiviral activity determination) and stored in vacuette lithium heparin tubes (Greiner Bio-One). […] Plasma samples were collected after centrifugation and then stored at −80°C until assay. Urine was also collected (and the volume was recorded) at pre-dose, 0–4, 4–8, and 8–12 h intervals. […] After mixing and centrifugation, the supernatant was loaded in prewashed Oasis MCX cartridge (1 cc, 30 mg, Waters) and the cartridge was rinsed subsequently with 1% formic acid, water, and methanol followed by vacuum dried for 20 min. The analytes were then eluted with 1 mL of 1% ammonia in methanol. The eluting solvent was dried by a vacuum concentrator and the residue was reconstituted with 200 μL of 0.1% formic acid : methanol (1 : 1 v/v) prior to HPLC/MS/MS analysis using an ABI 2000 Q-Trap triple quadrupole mass spectrometer (Applied Biosystems) coupled with PE-200 series micropumps and autosampler (Perkin-Elmer). […] In human study, trough concentration (C trough) was defined as the minimum concentration obtained and was obtained at 12 h post-dose. […] In human studies, the comparison of WM + CMF1 to WM alone treatments was evaluated using a 90% confidence intervals (90% CI) approach (USFDA guideline, Drug Interactions Studies, September 2006). […] The statistical model included terms describing the effects attributable to sequence, subject (nested in sequence), period, and treatment (formulation). […] Difference in the median T max between both treatments was evaluated using Wilcoxon signed-rank test. For comparison of the human antiviral activities, one-way analysis of variance in conjunction with post hoc Turkey's range test was performed.
# H3N2 = tested on: H3N2; set-up: method as in PMID 20215135; conditions: read-out: inhibitory concentrations (IC50) against H3N2; cited from earlier work
# influenza virus strains = tested on: influenza virus strains; set-up: method as in PMID 20215135; conditions: read-out: inhibitory concentrations (IC50) against influenza virus strains; cited from earlier work
# [2] = cited from earlier work
# [3] = Rat in situ intestinal perfusion model, effect of CMF1 on absorption of OA; type: in vivo; conditions: CMF1 6.8 mg/mL vs OA alone (Figure 2)
# Procedure: In view of the consistent effect of CMF1 on OA and OC, further confirmation was performed using rat in situ intestinal perfusion model as described previously. Perfusion concentrations were set at 6.8 mg/mL for CMF1. The flow rate of perfusate applied to the intestinal lumen was set at 0.3 mL/min. Samples obtained from the mesenteric vein were collected into the preweighted 2 mL centrifuge tubes (each containing 30 μL of 10 mg/mL saline solution of dichlorvos) at every 5 min. All collected samples were weighted and centrifuged at 13,000 rpm for 4 min immediately. The plasma samples were stored at −80°C refrigerator until further treated by SPE and analyzed by LC/MS/MS assay as described above.
# [4] = geometric mean ratio of (WM + CMF1)/WM
# [5] = male, in vivo, 75 mg, day 5, WM alone, n = 14, arithmetic mean ± SD
# [6] = male, in vivo, day 5, WM + CMF1, n = 14, arithmetic mean ± SD
smiles,measurement,setting,value
"CCC(CC)O[C@@H]1C=C(C(=O)O)C[C@H](N)[C@H]1NC(C)=O [OC, oseltamivir carboxylate]",lowering of 12 h cumulative amount excreted in urine by co-administration of CMF1,[1],~ 14%
same,"12 h Cum. amt. in urine, geometric mean","[1]; WM + CMF1, n = 14",61224.10 µg
same,"12 h Cum. amt. in urine, geometric mean","[1]; WM alone, n = 14",71215.61 µg
same,time to reach peak maximum in plasma,[1]; approximate value,4 to 5 h
same,12 h Cum. amt. in urine,"[1]; day 5, WM + CMF1, n = 14, arithmetic mean ± SD",62087 ± 10741 µg
same,12 h Cum. amt. in urine,"[1]; day 5, WM alone, n = 14, arithmetic mean ± SD",72851 ± 15312 µg
same,GM Ratio of 12 h Cum. amt. in urine,[1]; [4],85.97%
same,GM Ratio of AUC0–12 h,[1]; [4],91.32%
same,GM Ratio of C max,[1]; [4],91.32%
same,concentration of OC in plasma relative to the respective OA,[1]; oral WM,~ 10 fold
same,AUC(0-t),"[1]; male, in vivo, 75 mg, WM alone, n = 14, read-out: AUC0–12 h, geometric mean",4450 ng·h/mL
same,Cmax,"[1]; male, in vivo, 75 mg, WM alone, n = 14, read-out: C max, geometric mean",526 ng/mL
same,CL renal,"[1]; male, in vivo, 75 mg, approximate value, read-out: renal clearance (converted)",~267 mL/min
same,concentration at 12 h,"[1]; male, in vivo, 75 mg, day 5, WM alone (Tamiflu 75 mg bid), n = 14, arithmetic mean ± SD, read-out: C trough (plasma concentration at 12 h postdose)",207 ± 67.7 ng/mL
same,AUC(0-t),"[1]; male, in vivo, 75 mg, day 5, WM alone, n = 14, arithmetic mean ± SD, read-out: AUC0–12 h",4580 ± 1160 ng·h/mL
same,Cmax,"[1]; male, in vivo, 75 mg, day 5, WM alone, n = 14, arithmetic mean ± SD, read-out: C max",536 ± 102 ng/mL
same,CL renal,"[1]; male, in vivo, 75 mg, day 5, WM alone, n = 14, arithmetic mean ± SD, read-out: Renal clearance (converted)",272 mL/min
same,AUC(0-t),"[1]; male, in vivo, WM + CMF1, n = 14, read-out: AUC0–12 h, geometric mean",4070 ng·h/mL
same,Cmax,"[1]; male, in vivo, WM + CMF1, n = 14, read-out: C max, geometric mean",481 ng/mL
same,concentration at 12 h,"[1]; male, in vivo, both WM and WM + CMF1 treatments, approximate value, read-out: mean C trough",~200 ng/mL
same,concentration at 12 h,"[1]; male, in vivo, both WM and WM + CMF1 treatments, read-out: mean C trough, molar equivalent",~704 nM
same,concentration at 2 h,"[1]; male, in vivo, both treatments (WM and WM + CMF1), read-out: 2 h post-dose plasma concentration",410 to 436 ng/mL
same,concentration at 12 h,"[1]; male, in vivo, day 5, WM + CMF1 (10 g per dose), n = 14, arithmetic mean ± SD, read-out: C trough (plasma concentration at 12 h postdose)",195 ± 51.2 ng/mL
same,AUC(0-t),"[1]; male, in vivo, day 5, WM + CMF1, n = 14, arithmetic mean ± SD, read-out: AUC0–12 h",4140 ± 783 ng·h/mL
same,Cmax,"[1]; male, in vivo, day 5, WM + CMF1, n = 14, arithmetic mean ± SD, read-out: C max",487 ± 82.7 ng/mL
same,CL renal,"[1]; male, in vivo, day 5, WM + CMF1, n = 14, arithmetic mean ± SD, read-out: Renal clearance (converted)",257 mL/min
same,half-life,[1]; [5],5.16 ± 1.27 h
same,Tmax,[1]; [5],4.21 ± 0.97 h
same,half-life,[1]; [6],5.7 ± 1.35 h
same,Tmax,[1]; [6],3.5 ± 0.94 h
same,IC50,H3N2,0.2 to 0.6 nM
same,IC50,influenza virus strains,0.01 to 69.2 nM
same,effect of food on bioavailability,[2],no significant effect
same,maximum plasma oseltamivir carboxylate concentration,[2]; following 50 mg doses,about 230 μg/L
same,absolute oral bioavailability of OC from orally administered OA,[2]; oral OA,80%
same,half-life,[2]; oral OA,6 to 10 h
same,accumulated amount in rat mesenteric blood in presence of CMF1,[3],decreased without statistical significance
